Data as given in ChEMBL document CHEMBL1135081, “Insertion of 2-carboxysuccinate and tricarballylic acid fragments into cyclic-pseudopeptides: new antagonists for the human tachykinin NK-2 receptor” (Bioorg Med Chem Lett, 2002).

Key:
Substance-K receptor [1] = biological target: T1, Substance-K receptor (Homo sapiens, UniProt P21452); experiment: Displacement of [125I]NKA from human Tachykinin receptor 2 expressed in CHO cells; type: cell-based
T1 sequence (P21452 whole entry): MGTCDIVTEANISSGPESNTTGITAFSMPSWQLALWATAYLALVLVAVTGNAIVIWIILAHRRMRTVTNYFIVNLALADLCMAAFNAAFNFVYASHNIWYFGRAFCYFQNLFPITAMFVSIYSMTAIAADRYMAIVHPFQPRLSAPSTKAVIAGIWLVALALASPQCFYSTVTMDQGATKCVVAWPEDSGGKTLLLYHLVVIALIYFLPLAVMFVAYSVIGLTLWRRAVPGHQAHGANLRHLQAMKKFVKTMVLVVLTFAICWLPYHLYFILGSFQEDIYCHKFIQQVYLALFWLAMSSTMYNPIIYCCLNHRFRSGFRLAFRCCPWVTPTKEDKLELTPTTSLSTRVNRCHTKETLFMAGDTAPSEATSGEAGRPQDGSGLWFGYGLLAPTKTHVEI

Substance-K receptor [2] = biological target: T2, Substance-K receptor (Oryctolagus cuniculus, UniProt P79218); experiment: In vitro functional activity towards Neurokinin NK2 receptor on isolated rabbit urinary bladder (RUB); settings: for Kb: read-out: pA2 (converted)
T2 sequence (P79218 whole entry): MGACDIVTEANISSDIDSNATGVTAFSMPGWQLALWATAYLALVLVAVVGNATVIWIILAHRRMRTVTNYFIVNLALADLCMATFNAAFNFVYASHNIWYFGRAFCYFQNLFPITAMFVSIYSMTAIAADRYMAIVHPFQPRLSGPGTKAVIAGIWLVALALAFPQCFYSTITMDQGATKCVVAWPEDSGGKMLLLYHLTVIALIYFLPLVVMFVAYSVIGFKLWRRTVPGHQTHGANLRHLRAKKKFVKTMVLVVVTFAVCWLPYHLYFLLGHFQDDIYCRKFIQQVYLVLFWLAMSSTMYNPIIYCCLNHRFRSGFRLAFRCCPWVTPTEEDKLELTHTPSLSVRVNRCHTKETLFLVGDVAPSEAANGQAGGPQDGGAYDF

Structure (SMILES)	Ki (Substance-K receptor [1]) [nM]	Kb (Substance-K receptor [2]) [nM]	pA2 (Substance-K receptor [2])
O=C1CC(C(=O)N2CCN(CCOCCO)CC2)C(=O)NC[C@@H](Cc2ccccc2)NC(=O)[C@@H](Cc2ccccc2)NC(=O)[C@H](Cc2c[nH]c3ccccc23)N1 (some centres not stated)	1.58	1	
CC(=O)NC1C(NC(=O)C[C@H]2CC(=O)N[C@@H](Cc3c[nH]c4ccccc34)C(=O)N[C@H](Cc3ccccc3)C(=O)N[C@H](Cc3ccccc3)CNC2=O)OC(CO)C(O)C1O (some centres not stated)	6.31	7.94	
O=C1C[C@@H](CC(=O)N2CCOCC2)C(=O)NCC(Cc2ccccc2)NC(=O)C(Cc2ccccc2)NC(=O)[C@H](Cc2c[nH]c3ccccc23)N1 (single isomer, unassigned)	0.631	1	
O=C(C[C@@H]1CC(=O)N[C@@H](Cc2c[nH]c3ccccc23)C(=O)NC(Cc2ccccc2)C(=O)NC(Cc2ccccc2)CNC1=O)NC1OC(CO)C(O)C(O)C1O (single isomer, unassigned)	10	6.31	
O=C1CC(C(=O)NC(CO)CO)C(=O)NCC(Cc2ccccc2)NC(=O)C(Cc2ccccc2)NC(=O)[C@H](Cc2c[nH]c3ccccc23)N1 (single isomer, unassigned)	3.98	3.16	
O=C1CC(C(=O)N2CCC(N3CCCCC3)CC2)C(=O)NCC(Cc2ccccc2)NC(=O)C(Cc2ccccc2)NC(=O)[C@H](Cc2c[nH]c3ccccc23)N1 (single isomer, unassigned; 8f)	0.316		9.1
CC(=O)NC1C(NC(=O)C[C@@H]2CC(=O)N[C@@H](Cc3c[nH]c4ccccc34)C(=O)N[C@H](Cc3ccccc3)C(=O)N[C@H](Cc3ccccc3)CNC2=O)OC(CO)C(O)C1O (some centres not stated)	7.94	6.31	
O=C1CC(C(=O)N2CCOCC2)C(=O)NCC(Cc2ccccc2)NC(=O)C(Cc2ccccc2)NC(=O)[C@H](Cc2c[nH]c3ccccc23)N1 (single isomer, unassigned)	0.126	0.631	
O=C1C[C@H](CC(=O)N2CCC(N3CCCCC3)CC2)C(=O)NC[C@@H](Cc2ccccc2)NC(=O)[C@@H](Cc2ccccc2)NC(=O)[C@H](Cc2c[nH]c3ccccc23)N1	5.01	3.98	
O=C1C[C@@H](CC(=O)N2CCC(N3CCCCC3)CC2)C(=O)NC[C@@H](Cc2ccccc2)NC(=O)[C@@H](Cc2ccccc2)NC(=O)[C@H](Cc2c[nH]c3ccccc23)N1	1.58	2.51	
CN(C)CCNC(=O)C[C@@H]1CC(=O)N[C@@H](Cc2c[nH]c3ccccc23)C(=O)N[C@H](Cc2ccccc2)C(=O)N[C@H](Cc2ccccc2)CNC1=O	6.31	3.16	
O=C1CCC(=O)N[C@@H](Cc2c[nH]c3ccccc23)C(=O)NC(Cc2ccccc2)C(=O)N[C@H](Cc2ccccc2)CN1 (single isomer, unassigned)		5.01	
O=C1CC(C(=O)N2CCC(N3CCCCC3)CC2)C(=O)NCC(Cc2ccccc2)NC(=O)C(Cc2ccccc2)NC(=O)[C@H](Cc2c[nH]c3ccccc23)N1 (single isomer, unassigned; 8e)	0.0501	0.794	
CC(=O)NC1C(NC(=O)C2CC(=O)N[C@@H](Cc3c[nH]c4ccccc34)C(=O)N[C@H](Cc3ccccc3)C(=O)N[C@H](Cc3ccccc3)CNC2=O)OC(CO)C(O)C1O (some centres not stated)	2.51	3.98	
